Test [1] deals with cells transfected with HLA-Cw*1601. As to the kind of experiment: CTL stimulation assay (TNF production) with HLA-Cw*1601-transfected cells incubated with peptide. Type of test: cell-based. The settings on record: six CTL clones from patient MZ2; cells transfected with HLA-Cw*1601 and incubated with nonapeptide. As for the experimental part: Cotransfectants were tested after 24 or 48 hours for their ability to stimulate the production of tumor necrosis factor (TNF) by CTLs (Traversari et al., Immunogenetics, 235:145-152 (1992)). 1500 CTLs were added in 100 μl of Iscove's medium (Gibco BRL) containing 10% human serum and 20 U/ml r-hu-IL-2 to microwells containing target cells. After 24 hours, the supernatant was collected and its TNF content was determined by testing its cytotoxic effect on cells of WEHI-164 clone 13 (Espevik et al., J. Immunol. Methods, 95:99-105 (1986)) in an MTT colorimetric assay (Hansen et al., J. Cancer, 39:390-396 (1989) and Traversari et al., supra).
Several synthetic peptides were prepared on this basis. Peptides were synthesized on solid phase using F-moc for transient NH2-terminal protection as described by Atherton et al., J. Chem. Soc. Lond. […] Chromium release was measured after 4 hours at 37° C.
From two MLTCs set up with different blood samples of patient MZ2, six CTL clones that recognized the BAGE/HLA-Cw*1601 antigen were derived. […] Vα and Vβ expression were determined as follows: Total RNA from the different CTL clones was prepared by using RNAzol*B (Cinna/Biotecx, Friendswood, Tex.). […] Specificity of TCR Vα and Vβ PCR amplification was assessed by Southern blotting and hybridization with ^32P-labelled Cα or Cβ oligonucleotides internal to the ones used for amplification.

Test [2] deals with lymphoblastoid cell line MZ2-EBV. In words: peptide sensitization chromium release assay: lysis by CTL 82/82 of peptide-incubated target cells. The settings on record: chromium release after 4 hours; for sensitization of target cells to lysis by CTL 82/82: lymphoblastoid cell line from patient MZ2, various peptide concentrations. The test is classed as cell-based, human. As for the experimental part: (§1) The lysis assay employed was a chromium release assay following Herin et al., Int. J. Cancer, 39:390-396 (1987), which is incorporated herein by reference. The assay, however, is described herein. The target melanoma cells were grown in vitro, and then resuspended at 4×10^7 cells/ml in DMEM, supplemented with DMEM with 10 mM HEPES and 50% FCS, and incubated for 60 minutes at 37° C. with 200 μCi/ml of Na(^51Cr)O4. Labelled cells were washed three times with DMEM, supplemented with 10 mM HEPES. These were then resuspended in DMEM supplemented with 10 mM HEPES and 10% FCS, after which 100 μl aliquots containing 10^3 cells, were distributed into 96 well microplates. Samples of PBLs were added in 100 μl of the same medium, and assays were carried out in duplicate. Plates were centrifuged for 4 minutes at 100 g, and incubated for four hours at 37° C. in a 8% CO2 atmosphere.
(§2) Plates were centrifuged again, and 100 μl aliquots of supernatant were collected and counted. Percentage of ^51Cr release was calculated as follows: [formula]
where ER is observed, experimental ^51Cr release, SR is spontaneous release measured by incubating 10^3 labeled cells in 200 μl of medium alone, and MR is maximum release, obtained by adding 100 μl 0.3% Triton X-100 to target cells.
Several synthetic peptides were prepared on this basis. Peptides were synthesized on solid phase using F-moc for transient NH2-terminal protection as described by Atherton et al., J. Chem. Soc. Lond. Perkin Trans., 1:538-546 (1981) and characterized by mass spectrometry. All peptides were >90% pure as indicated by analytical HPLC. Lyophilized peptides were dissolved at 20 mg/ml in DMSO, diluted at 2 mg/ml in 10 mM acetic acid and stored at […]. Peptides were tested in a CTL stimulation assay with COS-7 cells transfected by HLA-Cw*1601 and incubated with the peptides. They were also tested by chromium release assay as previously described (Boon et al., J. Exp. Med., 152:1184-1193 (1980)). In this peptide sensitization assay, target cells were ^51Cr-labelled for one hour at 37° C. and washed extensively. 1000 target cells were then incubated in 96-well microplates in the presence of various concentrations of peptide for 30 minutes at 37° C. before CTL 82/82 cells were added. Chromium release was measured after 4 hours at 37° C.
The final concentration of peptides during the incubation of the target cells with the CTL is indicated. The arrow indicates the percentage of lysis of MZ2-MEL.43 cells. […] P1.HTR cells were transfected with HLA-Cw*1601 and were incubated with nonapeptide AARAVFLAL (SEQ ID NO: 3). […] Lysis of chromium-labelled cells was tested after 4 hours.

The test system of test [3] is P1.HTR cells transfected with HLA-Cw*1601. As to the kind of experiment: chromium release assay: lysis by CTL clone 82/82 of P1.HTR transfected with HLA-Cw*1601 and incubated with peptide. Type of test: cell-based, mouse. The settings on record: P1.HTR transfected with HLA-Cw*1601, 1 μM peptide, lysis tested after 4 hours. As to the method:
as §1, §2
where ER is observed, experimental ^51Cr release, SR is spontaneous release measured by incubating 10^3 labeled cells in 200 μl of medium alone, and MR is maximum release, obtained by adding 100 μl 0.3% Triton X-100 to target cells. […]
Several synthetic peptides were prepared on this basis. […] Chromium release was measured after 4 hours at 37° C. […]

As for “AARAVFLAL [Ala Ala Arg Ala Val Phe Leu Ala Leu, BAGE-encoded nonapeptide (amino acids 2-10) recognized in association with HLA-Cw*1601 by CTL 82/82]”, in test [1], the “response of CTL clones recognizing the BAGE/HLA-Cw*1601 antigen” value is “responded”. Further, in test [2] (MZ2-EBV targets incubated 30 minutes with peptide, CTL 82/82 added, read-out: peptide concentration giving half-maximal lysis), the EC50 stood at 30 nM. Besides, in test [2], the “sensitization of target cells to lysis by CTL 82/82” value (from here on “sensitization of target cells”) is “Sensitization of a lymphoblastoid cell line from patient MZ2 to lysis by CTL 82/82 was observed”. In addition, the “lysis by CTL 82/82 of peptide-incubated transfected cells” value in test [3] is given as “lysed by CTL 82/82”.

As for ARAVFLALF, the “sensitization of target cells” value in test [2] was “not able to sensitize target cells to lysis”.

Regarding MAARAVFLA, the “sensitization of target cells” value in test [2] is given as “not able to sensitize target cells to lysis”.
